Reference: patent US7892754B2, “Hepatitis B virus pre-S1 derived synthetic polypeptides and uses thereof” (priority 2001, dated 2011)
Ends that are not written are not given here. Peptide text beside a SMILES is read from it. * marks the point of attachment. Myristoyl = CCCCCCCCCCCCCC(=O)*

How the values were obtained:
[1] = tested on: HBV; test: Polypeptide competition assay: inhibition of HBV infection of human hepatocyte cultures, HBsAg ELISA in supernatant; format: cell-based; settings: for inhibitory activity against HBV infection, comparison of C-terminally truncated peptides: 0.8 to 800 nM; for effect on HBV infectivity (HBsAg secretion): FIG. 1
Description: (§1) Fragments of normal adult human liver were obtained from patients undergoing hepatic resection for liver metastases (the fragments were taken at a distance from the metastasis in macroscopically normal liver). Access to this biopsy material was in agreement with French laws and satisfied the requirements of the French National Ethics Committee. Hepatocytes were isolated by the procedure of Guguen-Guillouzo and Guillouzo and cultured in H medium supplemented with 3.5×10^−6 M hydrocortisone hemisuccinate, 2 mM L-glutamine, 50 mg of gentamicin per litre, 2% dimethyl sulfoxide, 5% adult human serum, and 5% FCS. Three days after seeding, the cells were infected.
As an infectious inoculum, a 50-fold concentrated culture medium of HepG2 clone 2.2.15 cells was used, because of an unlimited supply and a constant quality.
It was prepared as described previously. Differentiated cells were incubated with the concentrated infectious source, 10-fold diluted in culture medium supplemented with 5% PEG 8000 (Sigma), for 20 h at 37° C. as described previously (Gripon et al., 1988; Gripon et al., 1993). Control cultures were incubated with 5% PEG and 25% FCS diluted in phosphate-buffered saline (PBS) instead of the infectious source. At the end of the incubation, cells were washed three times with the culture medium and maintained in the presence of 2% DMSO and 5×10^−5 M hydrocortisone hemisuccinate and harvested at indicated times.
(§2) Polypeptide competition assays were performed by pre-incubating cells with the analyzed polypeptide for 30 min, at 37° C., prior to the addition of the infectious source.
HBsAg was detected in the medium by an ELISA kit (Monolisa AgHBs plus) obtained from Bio-Rad Laboratories. Values are expressed in ng/ml of supernatant or percent of control (absence of peptide).

[2] = tested on: DHBV; test: In vivo DHBV infection inhibition in ducks (Dot Blot of viral DNA, Western Blot of L protein in serum); settings: for L protein of DHBV in serum (Western Blot): 35 days post-infection, FIG. 6; for viral DNA in serum (Dot Blot): day 28 post-infection; for viral DNA in serum (Dot Blot) / viremia (Dot Blot of viral DNA in serum): FIG. 5; for viremia (Dot Blot of viral DNA in serum): ducks injected simultaneously with DHBV and peptide, days 9 and 15 post-infection
Procedure: Ducks are simultaneously injected with DHBV and duck preS Myr 2-41 (DpreS2-41^myr), heron preS Myr 2-44 (HepreS2-44^myr), human preS Myr 2-68 (HupreS2-68^myr), duck preS Myr 2-21 (DpreS2-21^myr) or ddH2O. The viremia of infected animals is assessed by Dot Blot analysis of viral DNA, 5, 9, 15 and 28 days post-infection.

[3] = tested on: DHBV; test: In vitro DHBV infection of primary duck hepatocytes; format: cell-based
[4] = tested on: HBV; test: Inhibition of HBV infection of human hepatocytes, RNA analysis (Northern blot); format: cell-based; settings: myristoylation and C-terminal truncation of pre-S1 peptides
Description: as §1
It was prepared as described previously. Differentiated cells were incubated with the concentrated infectious source, 10-fold diluted in culture medium supplemented with 5% PEG 8000 (Sigma), for 20 h at 37° C. as described previously (Gripon et al., 1988; Gripon et al., 1993). […]
as §2
Total cellular RNA was extracted by Total SV RNA kit (Promega, France), fractionated on a 1.5% agarose gel and analyzed by standard Northern blot procedure (Sambrook et al., 1989). […]

[5] = 800 nM, HBsAg 7 days after infection, FIG. 2
[6] = 8 μM, HBsAg 8 days after infection, FIG. 3
[7] = HBsAg 7 days after infection, FIG. 2
[8] = doses lower than 800 nM, FIG. 2
[9] = 1 μM peptide, HBsAg 14 days post-infection

## CCCCCCCCCCCCCC(=O)NCC(=O)N[C@@H](CCC(N)=O)C(=O)N[C@@H](Cc1c[nH]cn1)C(=O)N1CCC[C@H]1C(=O)N[C@@H](C)C(=O)N[C@@H](CCCCN)C(=O)N[C@@H](CO)C(=O)N[C@@H](CCSC)C(=O)N[C@@H](CC(=O)O)C(=O)N[C@H](C(=O)N[C@@H](CCCNC(=N)N)C(=O)N[C@@H](CCCNC(=N)N)C(=O)N[C@H](C(=O)N[C@@H](CCC(=O)O)C(=O)NCC(=O)NCC(=O)N[C@@H](CCC(=O)O)C(=O)N[C@H](C(=O)N[C@@H](CC(C)C)C(=O)N[C@@H](CC(C)C)C(=O)N[C@@H](CC(N)=O)C(=O)N[C@@H](CCC(N)=O)C(=O)N[C@@H](CC(C)C)C(=O)N[C@@H](C)C(=O)NCC(=O)N[C@@H](CCCNC(=N)N)C(=O)N[C@@H](CCSC)C(=O)N[C@H](C(=O)N1CCC[C@H]1C(=O)N[C@@H](CCCCN)C(=O)NCC(=O)N[C@H](C(=O)N[C@@H](CC(C)C)C(=O)N[C@H](C(=O)N[C@@H](Cc1c[nH]c2ccccc12)C(=O)N[C@@H](CO)C(=O)NCC(=O)N[C@@H](CCCCN)C(=O)N[C@@H](Cc1ccccc1)C(=O)N1CCC[C@H]1C(=O)O)[C@@H](C)O)[C@@H](C)O)[C@@H](C)CC)[C@@H](C)CC)[C@@H](C)CC)C(C)C [DHBV Myr PreS 2-41] (Myristoyl-GQHPAKSMDVRRIEGGEILLNQLAGRMIPKGTLTWSGKFP-OH; C-terminus assumed)
[1]; text summary referring to table 1
  activity on HBV infection: complete absence of activity
[2]
  L protein of DHBV in serum (Western Blot): not detected
  viral DNA in serum (Dot Blot): decreased or no longer detectable
  viremia (Dot Blot of viral DNA in serum): transitory viremia
[3]
  inhibition of DHBV infection: strong inhibitor

## CCCCCCCCCCCCCC(=O)NCC(=O)N[C@@H](CCC(N)=O)C(=O)N[C@@H](Cc1c[nH]cn1)C(=O)N1CCC[C@H]1C(=O)N[C@@H](C)C(=O)N[C@@H](CCCCN)C(=O)N[C@@H](CO)C(=O)N[C@@H](CCSC)C(=O)N[C@@H](CC(=O)O)C(=O)N[C@H](C(=O)N[C@@H](CCCNC(=N)N)C(=O)N[C@@H](CCCNC(=N)N)C(=O)N[C@H](C(=O)N[C@@H](CCC(=O)O)C(=O)NCC(=O)NCC(=O)N[C@@H](CCC(=O)O)C(=O)N[C@H](C(=O)N[C@@H](CC(C)C)C(=O)N[C@@H](CC(C)C)C(=O)O)[C@@H](C)CC)[C@@H](C)CC)C(C)C [DpreS2-21^myr] (Myristoyl-GQHPAKSMDVRRIEGGEILL-OH)
[2]
  L protein of DHBV in serum (Western Blot): not detected
  viral DNA in serum (Dot Blot): decreased or no longer detectable
  viremia (Dot Blot of viral DNA in serum): transitory viremia
[3]; primary duck hepatocytes
  in vitro inhibitory activity towards DHBV infection: no in vitro inhibitory activity

## CCCCCCCCCCCCCC(=O)NCC(=O)N[C@@H](CCC(N)=O)C(=O)N[C@@H](CC(N)=O)C(=O)N[C@@H](CC(C)C)C(=O)N[C@@H](CO)C(=O)N[C@H](C(=O)N[C@@H](CO)C(=O)N[C@@H](CC(N)=O)C(=O)N1CCC[C@H]1C(=O)N[C@@H](CC(C)C)C(=O)NCC(=O)N[C@@H](Cc1ccccc1)C(=O)N[C@@H](Cc1ccccc1)C(=O)N1CCC[C@H]1C(=O)N[C@@H](CC(=O)O)C(=O)N[C@@H](Cc1c[nH]cn1)C(=O)N[C@@H](CCC(N)=O)C(=O)N[C@@H](CC(C)C)C(=O)N[C@@H](CC(=O)O)C(=O)N1CCC[C@H]1C(=O)N[C@@H](C)C(=O)N[C@@H](Cc1ccccc1)C(=O)N[C@@H](CCCNC(=N)N)C(=O)N[C@@H](C)C(=O)N[C@@H](CC(N)=O)C(=O)N[C@H](C(=O)N[C@@H](C)C(=O)O)[C@@H](C)O)[C@@H](C)O [HBV Myr PreS 2-28]
[1]; [5]
  inhibition of HBV infection: 50%
[1]; [6]
  inhibitory activity against HBV infection: almost completely blocks HBV infection
[1]; [7]
  inhibitory activity against HBV infection, comparison of C-terminally truncated peptides: largely less active

## CCCCCCCCCCCCCC(=O)NCC(=O)N[C@@H](CCC(N)=O)C(=O)N[C@@H](CC(N)=O)C(=O)N[C@@H](CC(C)C)C(=O)N[C@@H](CO)C(=O)N[C@H](C(=O)N[C@@H](CO)C(=O)N[C@@H](CC(N)=O)C(=O)N1CCC[C@H]1C(=O)N[C@@H](CC(C)C)C(=O)NCC(=O)N[C@@H](Cc1ccccc1)C(=O)N[C@@H](Cc1ccccc1)C(=O)N1CCC[C@H]1C(=O)N[C@@H](CC(=O)O)C(=O)N[C@@H](Cc1c[nH]cn1)C(=O)N[C@@H](CCC(N)=O)C(=O)N[C@@H](CC(C)C)C(=O)N[C@@H](CC(=O)O)C(=O)N1CCC[C@H]1C(=O)N[C@@H](C)C(=O)N[C@@H](Cc1ccccc1)C(=O)N[C@@H](CCCNC(=N)N)C(=O)N[C@@H](C)C(=O)N[C@@H](CC(N)=O)C(=O)N[C@H](C(=O)N[C@@H](C)C(=O)N[C@@H](CC(N)=O)C(=O)N1CCC[C@H]1C(=O)N[C@@H](CC(=O)O)C(=O)N[C@@H](Cc1c[nH]c2ccccc12)C(=O)N[C@@H](CC(=O)O)C(=O)N[C@@H](Cc1ccccc1)C(=O)N[C@@H](CC(N)=O)C(=O)N1CCC[C@H]1C(=O)N[C@@H](CC(N)=O)C(=O)N[C@@H](CCCCN)C(=O)O)[C@@H](C)O)[C@@H](C)O [HBV Myr PreS 2-38]
[1]; [6]
  inhibitory activity against HBV infection: almost completely blocks HBV infection

## CCCCCCCCCCCCCC(=O)NCC(=O)N[C@@H](CCC(N)=O)C(=O)N[C@@H](CC(N)=O)C(=O)N[C@@H](CC(C)C)C(=O)N[C@@H](CO)C(=O)N[C@H](C(=O)N[C@@H](CO)C(=O)N[C@@H](CC(N)=O)C(=O)N1CCC[C@H]1C(=O)N[C@@H](CC(C)C)C(=O)NCC(=O)N[C@@H](Cc1ccccc1)C(=O)N[C@@H](Cc1ccccc1)C(=O)N1CCC[C@H]1C(=O)N[C@@H](CC(=O)O)C(=O)N[C@@H](Cc1c[nH]cn1)C(=O)N[C@@H](CCC(N)=O)C(=O)N[C@@H](CC(C)C)C(=O)N[C@@H](CC(=O)O)C(=O)N1CCC[C@H]1C(=O)N[C@@H](C)C(=O)N[C@@H](Cc1ccccc1)C(=O)N[C@@H](CCCNC(=N)N)C(=O)N[C@@H](C)C(=O)N[C@@H](CC(N)=O)C(=O)N[C@H](C(=O)N[C@@H](C)C(=O)N[C@@H](CC(N)=O)C(=O)N1CCC[C@H]1C(=O)N[C@@H](CC(=O)O)C(=O)N[C@@H](Cc1c[nH]c2ccccc12)C(=O)N[C@@H](CC(=O)O)C(=O)N[C@@H](Cc1ccccc1)C(=O)N[C@@H](CC(N)=O)C(=O)N1CCC[C@H]1C(=O)N[C@@H](CC(N)=O)C(=O)N[C@@H](CCCCN)C(=O)N[C@@H](CC(=O)O)C(=O)N[C@H](C(=O)N[C@@H](Cc1c[nH]c2ccccc12)C(=O)N1CCC[C@H]1C(=O)N[C@@H](CC(=O)O)C(=O)N[C@@H](C)C(=O)N[C@@H](CC(N)=O)C(=O)N[C@@H](CCCCN)C(=O)N[C@H](C(=O)NCC(=O)O)C(C)C)[C@@H](C)O)[C@@H](C)O)[C@@H](C)O [HBV Myr PreS 2-48]
[1]; [7]
  inhibitory activity against HBV infection, comparison of C-terminally truncated peptides: highest inhibitory activity
[4]
  inhibitory activity against HBV infection by RNA analysis: highest inhibitory activity

## HBV Myr PreS 2-68: myristoylated HBV pre-S1 peptide, amino acids 2-68
[1]; [5]
  inhibitory activity against HBV infection: very efficient
[1]; [8]
  inhibitory activity against HBV infection: less active
[2]; FIGS. 5 and 6
  infection of ducks with DHBV: seems to delay but do not prevent infection

## HBV Myr PreS 2-78: myristoylated HBV pre-S1 peptide, amino acids 2-78
[1]; [5]
  inhibitory activity against HBV infection: very efficient
[1]; [9]
  effect on HBV infectivity (HBsAg secretion): almost completely abolish it
[1]; [8]
  inhibitory activity against HBV infection: less active
[1]; lower doses than 1 μM
  effect on HBV infectivity (HBsAg secretion): partly inhibitory

## HBV PreS 1-78: non myristoylated peptide, pre-S1 amino acids 1 to 78 of Hepatitis B virus subtype ayw
[1]; [9]
  effect on HBV infectivity (HBsAg secretion): only a faint effect

## Myristoyl-GLNQSTFNPLGFFPSHQLDPLFKANAGSADWDKNPNKDPWPQAHDTA [WMHBV Myr PreS 2-48]
[1]; decreasing peptide concentrations, HBsAg day 10 post-infection, FIG. 4
  comparative inhibitory activity towards HBV infection of human cells: nearly as efficient as the HBV derived peptide
